Experimental data: paper PMC11496704, “Synthesis and cytotoxicity studies of novel N-arylbenzo[h]quinazolin-2-amines” (Beilstein Journal of Organic Chemistry, 2024)
Like-named read-outs stand apart in the source and are kept apart here.

Assays:
HCT-116 = test: Cytotoxicity secondary screen (IC50); format: cell-based; conditions: Homo sapiens, 48 h exposure, mean of triplicates, NE: no effect
Method: (§1) Next, we performed a cytotoxicity screening of the nineteen molecules 4a–s, at 25 μM, investigating seven representative cancer cell lines: hepatocellular carcinoma HuH-7, colorectal adenocarcinoma CaCo-2, breast carcinoma MDA-MB-231 and MDA-MB-468, colorectal carcinoma HCT-116, prostate carcinoma PC3 and breast carcinoma MCF7. […] For details see: ref. [2] and Supporting Information File 1, Table S1.
(§2) Cell culture. Skin normal fibroblastic cells are purchased from Lonza (Basel, Switzerland), HuH-7, Caco-2, MDA-MB-231, HCT-116, PC3, MCF7 and NCI-H727 cancer cell lines were obtained from ATCC (American Type Culture Collection). Cells are grown at 37 °C, 5% CO2 in ATCC recommended media: DMEM for HuH-7, MDA-MB-231, MDA-MB-468 and fibroblast, EMEM for MCF7 and CaCo-2, McCoy’s for HCT-116 and RPMI for PC3 and NCI-H727. All culture media are supplemented by 10% of FBS, 1% of penicillin-streptomycin and 2 mM glutamine.
(§3) Both studies have been performed following the protocols described in a previous paper, see ref. [2].

Caco-2 [1] = test: Cytotoxicity secondary screen (IC50); format: cell-based; conditions: Homo sapiens, 48 h exposure, mean of triplicates, NE: no effect
Method: as §1, §2, §3

MDA-MB-231 = test: Cytotoxicity secondary screen (IC50); format: cell-based; conditions: Homo sapiens, 48 h exposure, mean of triplicates, NE: no effect
MCF7 [2] = test: Cytotoxicity secondary screen (IC50); format: cell-based; conditions: Homo sapiens, 48 h exposure, mean of triplicates, NE: no effect
[3] = tested on: seven representative tumor cell lines; test: Cytotoxicity IC50, summary over several cell lines; format: cell-based; conditions: read-out: IC50 (span over cell lines)
Method: as §2, with “For details see: ref. [2] and Supporting Information File 1, Table S1. […] [table] Cell culture.” for “Cell culture.”, “mM glutamine. Both studies have been performed following the protocols described in a previous paper, see ref. [2].” for “mM glutamine.”

MDA468 = test: Cytotoxicity primary screen (single dose); format: cell-based; set-up: viability: dose or concentration left out as unconfirmed; conditions: 48 h exposure, mean of triplicates, read-out: percentage of cell survival over DMSO control, MDA468; for viability at 25 µM: single dose 25 μM
Method: as §1, §2, §3
(§4) Table S1: Cytotoxicity studies (single dose at 25µM) of N-arylbenzo[h]quinazolin-2-amines 4a–s
(§5) The toxicity is expressed as the percentage of cell survival (from 100 % to 0 %) over DMSO control after 48 h exposure (mean of triplicates).
(§6) Effect of the solvent (DMSO) was studied at 0.25%.

PC3 [4] = test: Cytotoxicity primary screen (single dose); format: cell-based; set-up: viability: dose or concentration left out as unconfirmed; conditions: Homo sapiens, PC-3, 48 h exposure, mean of triplicates, read-out: percentage of cell survival over DMSO control, PC3; for viability at 25 µM: single dose 25 μM
Method: as §1, §2, §3, §4, §5, §6

MCF7 [5] = test: Cytotoxicity primary screen (single dose); format: cell-based; set-up: viability: dose or concentration left out as unconfirmed; conditions: Homo sapiens, 48 h exposure, mean of triplicates, read-out: percentage of cell survival over DMSO control, MCF7; for viability at 25 µM: single dose 25 μM
Method: as §1, §2, §3, §4, §5, §6

HCT116 = test: Cytotoxicity primary screen (single dose); format: cell-based; set-up: viability: dose or concentration left out as unconfirmed; conditions: Homo sapiens, HCT-116, 48 h exposure, mean of triplicates, read-out: percentage of cell survival over DMSO control, HCT116; for viability at 25 µM: single dose 25 μM
Method: as §1, §2, §3, §4, §5, §6

MDA231 = test: Cytotoxicity primary screen (single dose); format: cell-based; set-up: viability: dose or concentration left out as unconfirmed; conditions: Homo sapiens, MDA-MB-231, 48 h exposure, mean of triplicates, read-out: percentage of cell survival over DMSO control, MDA231; for viability at 25 µM: single dose 25 μM
Method: as §1, §2, §3, §4, §5, §6

MDA-MB-468 = test: Cytotoxicity secondary screen (IC50); format: cell-based; conditions: Homo sapiens, 48 h exposure, mean of triplicates, NE: no effect
HuH7 [6] = test: Cytotoxicity primary screen (single dose); format: cell-based; conditions: Homo sapiens, Huh-7; single dose 25 μM, 48 h exposure, mean of triplicates; read-out: percentage of cell survival over DMSO control, HuH7
Method: as §1, §2, §3, §4, §5, §6

Caco-2 [7] = test: Cytotoxicity primary screen (single dose); format: cell-based; conditions: 48 h exposure, mean of triplicates
Method: as §1, §2, §3, §4, §5, §6

normal human fibroblasts = test: Cytotoxicity secondary screen (IC50); format: cell-based; conditions: Fibroblast, 48 h exposure, mean of triplicates, NE: no effect, highest concentration tested 25 μM, read-out: IC50 Fibro
Method: as §2, §3

PC3 [8] = test: Cytotoxicity secondary screen (IC50); format: cell-based; conditions: Homo sapiens, PC-3; 48 h exposure, mean of triplicates; NE: no effect
Method: as §2, §3

HuH-7 = test: Cytotoxicity secondary screen (IC50); format: cell-based; conditions: Homo sapiens, 48 h exposure, mean of triplicates, NE: no effect
Method: as §2, §3

DYRKs kinases = tested on: DYRKs kinases; set-up: method as in PMID 33422908, PMID 36234686; conditions: at 100 μM; cited from earlier work
HuH7 [9] = test: Cytotoxicity primary screen (single dose); format: cell-based; set-up: dose or concentration left out as unconfirmed; conditions: Homo sapiens, Huh-7; 48 h exposure, mean of triplicates; read-out: percentage of cell survival over DMSO control, HuH7
[10] = reference compound at 0.025 M (so in the source)

| Compound | IC50 (HCT-116) [µM] | IC50 (Caco-2 [1]) [µM] | IC50 (MDA-MB-231) [µM] | IC50 (MCF7 [2]) [µM] | viability at 25 µM (MDA468) [%] | viability at 25 µM (PC3 [4]) [%] | viability at 25 µM (MCF7 [5]) [%] | viability at 25 µM (HCT116) [%] | viability at 25 µM (MDA231) [%] | IC50 (MDA-MB-468) [µM] | viability at 25 µM (HuH7 [6]) [%] | percentage of cell survival over DMSO control, CaCo-2 (Caco-2 [7]; single dose 25 μM) [%] | IC50 (normal human fibroblasts) [µM] | IC50 (PC3 [8]) [µM] | IC50 (HuH-7) [µM] | also measured |
| --- | --- | --- | --- | --- | --- | --- | --- | --- | --- | --- | --- | --- | --- | --- | --- | --- |
| c1ccc(Nc2ncc3ccc4ccccc4c3n2)cc1 [Compound 4a, N-phenylbenzo[h]quinazolin-2-amine] | 4 | 4.7 | 29 | 13 | 56 | 58 | 59 | 48 | 61 | 6 | 60 | 33 | > 25 | 34.5 | 1.7 | IC50 ([3]; against HuH-7, Caco-2, MDA-MB-468 and HCT-116 cells): 1.7 to 6 µM |
| Fc1cccc(Nc2ncc3ccc4ccccc4c3n2)c1 [Compound 4i, N-(3-fluorophenyl)benzo[h]quinazolin-2-amine] | 6 | 2 | 17 | 3 | 59 | 36 | 59 | 11 | 49 | 4 | 60 | 34 | > 25 | 11 | 17 | IC50 ([3]; on Caco-2, MDA-MB-468, HCT-116 and MCF7): 2 to 6 µM |
| Brc1cc(Br)cc(Nc2ncc3ccc4ccccc4c3n2)c1 [Compound 4o, N-(3,5-dibromophenyl)benzo[h]quinazolin-2-amine] | 23 | 16 | > 25 | 21 | 47 | 38 | 85 | 27 | 67 | 20 | 62 | 46 | > 25 | 21 | 24 | – |
| Clc1cc(Br)cc(Nc2ncc3ccc4ccccc4c3n2)c1 [Compound 4q, N-(3-bromo-5-chlorophenyl)benzo[h]quinazolin-2-amine] | 13 | 14 | 20 | 14 | 38 | 24 | 73 | 13 | 41 | 19 | 49 | 35 | > 25 | 19 | 16 | – |
| Cc1ccc(-n2cc(COc3cccc4cnc(Nc5cccc(Cl)c5)nc34)nn2)c([N+](=O)[O-])c1 [DB18] | – | – | – | – | – | – | – | – | – | – | – | – | – | – | – | action against DYRKs kinases (DYRKs kinases): does not show any action |
| CC(=O)O[C@H]1C(=O)[C@@]2(C)[C@H]([C@H](OC(=O)c3ccccc3)[C@]3(O)C[C@H](OC(=O)[C@H](O)[C@@H](NC(=O)c4ccccc4)c4ccccc4)C(C)=C1C3(C)C)[C@]1(OC(C)=O)CO[C@@H]1C[C@@H]2O [Taxol, reference compound] | 0.003 | 0.07 | 0.02 | 0.02 | – | – | – | – | – | 0.006 | – | – | – | 0.004 | 0.009 | viability (PC3 [4]): 30%; viability (MCF7 [5]): 27%; viability (HCT116): 7%; viability (MDA231): 32%; percentage of cell survival over DMSO control, CaCo-2 (Caco-2 [7]; [10]): 36%; viability (HuH7 [9]): 43% |
| COc1cccc2c1C(=O)c1c(O)c3c(c(O)c1C2=O)C[C@@](O)(C(=O)CO)C[C@@H]3O[C@H]1C[C@H](N)[C@H](O)[C@H](C)O1 [doxorubicin, reference compound] | 0.04 | – | 0.03 | 0.07 | – | – | – | – | – | 0.03 | – | – | – | 0.06 | 0.03 | viability (MDA468): 24%; viability (PC3 [4]): 42%; viability (MDA231): 31%; percentage of cell survival over DMSO control, CaCo-2 (Caco-2 [7]; [10]): 59%; viability (HuH7 [9]): 59% |
